From US10668051B2, “Modulators of calcium release-activated calcium channel” (Rhizen Pharmaceuticals SA, priority 2009, dated 2020) come the findings set out here.

The structures appear in SMILES notation. Where a name gives a salt, the structure may show the parent alone.

Chain of CRAC channels (Q96D31 whole entry): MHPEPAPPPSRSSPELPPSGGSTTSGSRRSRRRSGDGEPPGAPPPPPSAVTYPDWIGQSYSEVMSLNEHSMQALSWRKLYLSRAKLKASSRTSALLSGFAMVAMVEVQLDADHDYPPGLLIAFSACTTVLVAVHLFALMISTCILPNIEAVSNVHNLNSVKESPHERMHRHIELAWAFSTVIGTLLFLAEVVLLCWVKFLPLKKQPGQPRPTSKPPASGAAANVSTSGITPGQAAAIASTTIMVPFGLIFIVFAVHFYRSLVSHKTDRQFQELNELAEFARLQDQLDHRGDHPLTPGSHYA

The experiment addresses CRAC channels (Homo sapiens (Human), UniProt Q96D31). Briefly: In-vitro CRAC channel inhibition assay in Jurkat cells (thapsigargin-induced calcium influx). The experiment is classed as cell-based. As for the experimental part:
1A. In-Vitro CRAC Channel Inhibition Assay in Jurkat Cells
Plate is incubated at 37° C./5% CO2 for 30 min followed by further 15 min incubation at room temperature. Test compounds (DMSO stocks diluted in Ca^2+ and Mg^2+ free Hanks buffer) at desired concentrations were added to the wells and incubated for 15 min. Thapsigargin (1 μM final concentration) was added to the wells and incubated for 15 min to inhibit the Sarco-endoplasmic reticulum Ca^2+ ATPase pump thereby depleting endoplasmic calcium and raising cytosolic calcium concentrations. Store-operated calcium entry was initiated by adding extracellular Ca^2+ to a final concentration of 1.8 mM. Fluorescence was monitored over 5 min on a plate reader (BMG Labtech., Germany) with excitation at 485 nm and; an emission wavelength at 520 nm. Data were analyzed using GraphPad Prism. IC50 for each compound was determined based on the percent inhibition of thapsigargin-induced calcium influx into cells.
With `O=C(Nc1ccc(-n2nc(C3CC3)cc2C2CC2)nc1)c1cccc(F)c1F` [Example 44, N-[6-(3,5-dicyclopropyl-1H-pyrazol-1-yl)pyridin-3-yl]-2,3-difluorobenzamide hydrochloride], the inhibition (usually the change of the read-out against control, counted positive when it falls) at 1 µM is 63.4%. As for `O=C(Nc1ccc(-n2nc(C3CC3)cc2C2CC2)nc1)c1c(F)cccc1F` [Example 45, N-[6-(3,5-dicyclopropyl-1H-pyrazol-1-yl)pyridin-3-yl]-2,6-difluorobenzamide hydrochloride], the figure is 72.3%; as for `O=C(Nc1ccc(-n2nc(C3CC3)cc2C2CC2)nc1)c1cccnc1` [Example 46, N-[6-(3,5-dicyclopropyl-1H-pyrazol-1-yl)pyridin-3-yl]nicotinamide dihydrochloride], 0.26%. With `O=C(Nc1ccc(-n2nc(C3CC3)cc2C2CC2)nc1)c1ccncc1` [Example 47, N-[6-(3,5-dicyclopropyl-1H-pyrazol-1-yl)pyridin-3-yl]isonicotinamide dihydrochloride] the figure was 10.4%. With `O=C(Nc1ccc(-n2nc(C3CC3)cc2C2CC2)nc1)c1ccncc1F` [Example 48, N-[6-(3,5-dicyclopropyl-1H-pyrazol-1-yl)pyridin-3-yl]-3-fluoroisonicotinamide] the figure was 12.3%; with `O=C(Nc1ccc(-n2nc(C3CC3)cc2C2CC2)nc1)c1c(Cl)cncc1Cl` [Example 50, 3,5-dichloro-N-[6-(3,5-dicyclopropyl-1H-pyrazol-1-yl)pyridin-3-yl]isonicotinamide hydrochloride], 29.8%; with `Cc1ncncc1C(=O)Nc1ccc(-n2nc(C3CC3)cc2C2CC2)nc1` [Example 51, N-[6-(3,5-dicyclopropyl-1H-pyrazol-1-yl)pyridin-3-yl]-4-methylpyrimidine-5-carboxamide hydrochloride], 0%. For the molecule `Cc1ncsc1C(=O)N(C)c1ccc(-n2nc(C(F)(F)F)cc2C2CC2)cc1` [Example 54, N-{4-[5-cyclopropyl-3-(trifluoromethyl)-1H-pyrazol-1-yl]phenyl}-N,4-dimethylthiazole-5-carboxamide], the inhibition at 1 µM was determined as 0%. With `Cc1noc(C)c1C(=O)Nc1ccc(-n2nc(C(F)(F)F)cc2C2CC2)cc1` [Example 57, N-{4-[5-cyclopropyl-3-(trifluoromethyl)-1H-pyrazol-1-yl]phenyl}-3,5-dimethylisoxazole-4-carboxamide] the figure was 83.8%; with `Cn1ccnc1C(=O)Nc1ccc(-n2nc(C(F)(F)F)cc2C2CC2)cc1` [Example 58, N-{4-[5-cyclopropyl-3-(trifluoromethyl)-1H-pyrazol-1-yl]phenyl}-1-methyl-1H-imidazole-2-carboxamide], 40.5%; with `Cc1ccccc1C(=O)Nc1ccc(-n2nc(C(F)(F)F)cc2C2CC2)cc1` [Example 60, N-{4-[5-cyclopropyl-3-(trifluoromethyl)-1H-pyrazol-1-yl]phenyl}-2-methylbenzamide], 83.7%. Turning to `O=C(Nc1ccc(-n2nc(C(F)(F)F)cc2C2CC2)cc1)c1cccc(F)c1F` [Example 61, N-{4-[5-cyclopropyl-3-(trifluoromethyl)-1H-pyrazol-1-yl]phenyl}-2,3-difluorobenzamide], the inhibition at 1 µM is 100%. With `O=C(Nc1ccc(-n2nc(C(F)(F)F)cc2C2CC2)cc1)c1c(F)cccc1F` [Example 62, N-{4-[5-cyclopropyl-3-(trifluoromethyl)-1H-pyrazol-1-yl]phenyl}-2,6-difluorobenzamide] the figure was 100%; with `CS(=O)(=O)c1cccc(C(=O)Nc2ccc(-n3nc(C(F)(F)F)cc3C3CC3)cc2)c1` [Example 63, N-{4-[5-cyclopropyl-3-(trifluoromethyl)-1H-pyrazol-1-yl]phenyl}-3-(methylsulfonyl)benzamide], 39.1%; with `CSc1ccc(Cl)c(C(=O)Nc2ccc(-n3nc(C(F)(F)F)cc3C3CC3)cc2)c1` [Example 64, 2-chloro-N-{4-[5-cyclopropyl-3-(trifluoromethyl)-1H-pyrazol-1-yl]phenyl}-5-(methylthio)benzamide], 100%. As for `CS(=O)(=O)c1ccc(Cl)c(C(=O)Nc2ccc(-n3nc(C(F)(F)F)cc3C3CC3)cc2)c1` [Example 65, 2-chloro-N-{4-[5-cyclopropyl-3-(trifluoromethyl)-1H-pyrazol-1-yl]phenyl}-5-(methylsulfonyl)benzamide], the figure is 97.9%; as for `O=C(Nc1ccc(-n2nc(C(F)(F)F)cc2C2CC2)cc1)c1ccncc1` [Example 66, N-{4-[5-cyclopropyl-3-(trifluoromethyl)-1H-pyrazol-1-yl]phenyl}pyridine-4-carboxamide hydrochloride], 100%. As for `O=C(Nc1ccc(-n2nc(C(F)(F)F)cc2C2CC2)cc1)c1ccncc1F` [Example 67, N-{4-[5-cyclopropyl-3-(trifluoromethyl)-1H-pyrazol-1-yl]phenyl}-3-fluoroisonicotinamide], the figure is 100%; as for `Cc1ncncc1C(=O)Nc1ccc(-n2nc(C(F)(F)F)cc2C2CC2)cc1` [Example 68, N-{4-[5-cyclopropyl-3-(trifluoromethyl)-1H-pyrazol-1-yl]phenyl}-4-methylpyrimidine-5-carboxamide], 61.5%. Turning to `O=C(Cc1ccc(F)cc1)Nc1ccc(-n2nc(C(F)(F)F)cc2C2CC2)cc1` [Example 70, N-{4-[5-cyclopropyl-3-(trifluoromethyl)-1H-pyrazol-1-yl]phenyl}-2-(4-fluorophenyl)acetamide], the inhibition at 1 µM was determined as 68.9%. As for `O=C(Cc1ccccn1)Nc1ccc(-n2nc(C(F)(F)F)cc2C2CC2)cc1` [Example 71, N-{4-[5-cyclopropyl-3-(trifluoromethyl)-1H-pyrazol-1-yl]phenyl}-2-(pyridin-2-yl)acetamide hydrochloride], the figure is 100%; as for `O=C(Cc1cccnc1)Nc1ccc(-n2nc(C(F)(F)F)cc2C2CC2)cc1` [Example 72, N-{4-[5-cyclopropyl-3-(trifluoromethyl)-1H-pyrazol-1-yl]phenyl}-2-(pyridin-3-yl)acetamide hydrochloride], 100%; as for `O=C(Cc1ccncc1)Nc1ccc(-n2nc(C(F)(F)F)cc2C2CC2)cc1` [Example 73, N-{4-[5-cyclopropyl-3-(trifluoromethyl)-1H-pyrazol-1-yl]phenyl}-2-(pyridin-4-yl)acetamide hydrochloride], 68%. With `Cc1ncsc1CNc1ccc(-n2nc(C(F)(F)F)cc2C2CC2)cc1` [Example 74, 4-[5-cyclopropyl-3-(trifluoromethyl)-1H-pyrazol-1-yl]-N-[(4-methylthiazol-5-yl)methyl]aniline] the figure was 100%; with `Cc1nnsc1NC(=O)Nc1ccc(-n2nc(C(F)(F)F)cc2C2CC2)cc1` [Example 75, 1-{4-[5-cyclopropyl-3-(trifluoromethyl)-1H-pyrazol-1-yl]phenyl}-3-(4-methyl-1,2,3-thiadiazol-5-yl)urea], 0%. As for `Cc1ncsc1NC(=O)Nc1ccc(-n2nc(C(F)(F)F)cc2C2CC2)cc1` [Example 76, 1-{4-[5-cyclopropyl-3-(trifluoromethyl)-1H-pyrazol-1-yl]phenyl}-3-(4-methylthiazol-5-yl)urea], the figure is 92.3%. As to `Cc1ncncc1NC(=O)Nc1ccc(-n2nc(C(F)(F)F)cc2C2CC2)cc1` [Example 77, 1-{4-[5-cyclopropyl-3-(trifluoromethyl)-1H-pyrazol-1-yl]phenyl}-3-(4-methylpyrimidin-5-yl)urea], the inhibition at 1 µM was 44%.

Turning to `O=C(Nc1c(F)cccc1F)c1ccc(-n2nc(C(F)(F)F)cc2C2CC2)cc1` [Example 79, 4-[5-cyclopropyl-3-(trifluororomethyl)-1H-pyrazol-1-yl]-N-(2,6-difluorophenyl) benzamide], the inhibition at 1 µM came to 100%. Consider `Cc1ncsc1C(=O)Nc1ccc(-n2nc(C(F)(F)F)c(Cl)c2C2CC2)cc1` [Example 80, N-{4-[4-chloro-5-cyclopropyl-3-(trifluoromethyl)-1H-pyrazol-1-yl]phenyl}-4-methylthiazole-5-carboxamide], for which the inhibition at 1 µM is 81.6%. With `O=C(Cc1ccccn1)Nc1ccc(-n2nc(C(F)(F)F)c(Cl)c2C2CC2)cc1` [Example 81, N-{4-[4-chloro-5-cyclopropyl-3-(trifluoromethyl)-1H-pyrazol-1-yl]phenyl}-2-(pyridin-2-yl)acetamide hydrochloride] the figure was 56.1%; with `Cc1oncc1C(=O)Nc1ccc(-n2nc(C(F)(F)F)cc2C2CC2)c(F)c1` [Example 84, N-{4-[5-cyclopropyl-3-(trifluoromethyl)-1H-pyrazol-1-yl]-3-fluorophenyl}-5-methylisoxazole-4-carboxamide], 100%. With `Cc1noc(C)c1C(=O)Nc1ccc(-n2nc(C(F)(F)F)cc2C2CC2)c(F)c1` [Example 85, N-{4-[5-cyclopropyl-3-(trifluoromethyl)-1H-pyrazol-1-yl]-3-nuorophenyl}-3,5-dimethylisoxazole-4-carboxamide] the figure was 76.6%; with `Cc1ccccc1C(=O)Nc1ccc(-n2nc(C(F)(F)F)cc2C2CC2)c(F)c1` [Example 86, N-{4-[5-cyclopropyl-3-(trifluoromethyl)-1H-pyrazol-1-yl]-3-fluorophenyl}-2-methylbenzamide], 86.6%; with `O=C(Nc1ccc(-n2nc(C(F)(F)F)cc2C2CC2)c(F)c1)c1cccc(F)c1F` [Example 87, N-{4-[5-cyclopropyl-3-(trifluoromethyl)-1H-pyrazol-1-yl]-3-fluorophenyl}-2,3-difluorobenzamide], 91.6%.
